Experimental data from publication PMC12114683, “The Molecular Chaperone TCP1 Affects Carcinogenicity and Is a Potential Therapeutic Target for Acute Myeloid Leukemia” (Pharmaceutics, 2025).

Molecular target: T1, TCP1 (Homo sapiens, UniProt P17987)
T1 construct: commercial recombinant TCP1 (Abnova), isolated subunit, amine-coupled to CM5 chip; PDB 4B2T was only the docking model
Test: SPR (Biacore T200, CM5 chip, TCP1 amine-coupled)
Assay type: binding

T1 sequence (P17987 whole entry): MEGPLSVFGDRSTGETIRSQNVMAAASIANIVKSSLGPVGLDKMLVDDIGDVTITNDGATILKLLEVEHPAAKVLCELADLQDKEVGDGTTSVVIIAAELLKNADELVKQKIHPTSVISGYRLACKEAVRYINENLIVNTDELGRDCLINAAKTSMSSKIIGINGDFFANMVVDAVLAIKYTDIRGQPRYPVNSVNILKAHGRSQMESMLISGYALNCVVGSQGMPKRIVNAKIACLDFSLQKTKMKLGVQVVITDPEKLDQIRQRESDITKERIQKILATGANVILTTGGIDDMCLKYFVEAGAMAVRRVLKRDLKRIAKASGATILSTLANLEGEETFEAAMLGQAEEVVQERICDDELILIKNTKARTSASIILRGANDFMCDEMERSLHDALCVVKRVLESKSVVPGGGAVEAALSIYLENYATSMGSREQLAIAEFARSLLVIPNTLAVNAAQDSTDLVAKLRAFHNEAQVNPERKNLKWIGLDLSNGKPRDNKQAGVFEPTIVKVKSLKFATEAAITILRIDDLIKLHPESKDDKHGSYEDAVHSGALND

- Kd: 6.77 nM
Compound: CCCCCCCCc1ccc(CCC(N)(CO)CO)cc1 [FTY720]
